# Laboratory results from PubChem BioAssay (NCI).
#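 48-hour exposure; five concentrations; linearly interpolated endpoints. GI50 marks 50% less growth. Definition used: TGI = concentration required for complete inhibition of growth.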
# Experiments:
# Assay in all cases: DTP human tumour cell line panel, 48 h
# A549 NSCLC = tested on: A549 NSCLC
# RPMI-8226 leukemia = tested on: RPMI-8226 leukemia
# SNB-75 CNS = tested on: SNB-75 CNS
# NCI-H522 lung = tested on: NCI-H522 lung
# ACHN renal = tested on: ACHN renal
# IGROV1 ovarian = tested on: IGROV1 ovarian
# SNB-19 CNS = tested on: SNB-19 CNS
# SK-OV-3 ovarian = tested on: SK-OV-3 ovarian
# HOP-62 NSCLC = tested on: HOP-62 NSCLC
# COLO 205 colon = tested on: COLO 205 colon
# A498 renal = tested on: A498 renal
# K-562 leukemia = tested on: K-562 leukemia
# CCRF-CEM leukemia = tested on: CCRF-CEM leukemia
# NCI-H460 lung = tested on: NCI-H460 lung
# SF-268 CNS = tested on: SF-268 CNS
# HT29 colon = tested on: HT29 colon
# U251 CNS = tested on: U251 CNS
# NCI-H23 lung = tested on: NCI-H23 lung
# SK-MEL-2 melanoma = tested on: SK-MEL-2 melanoma
# OVCAR-4 ovarian = tested on: OVCAR-4 ovarian
# SF-539 CNS = tested on: SF-539 CNS
# M14 melanoma = tested on: M14 melanoma
# PC-3 prostate = tested on: PC-3 prostate
# HOP-92 NSCLC = tested on: HOP-92 NSCLC
# EKVX NSCLC = tested on: EKVX NSCLC
# SW-620 colon = tested on: SW-620 colon
# RXF 393 renal = tested on: RXF 393 renal
# UO-31 renal = tested on: UO-31 renal
# MALME-3M melanoma = tested on: MALME-3M melanoma
structure (smiles),measurement,setting,value
CSc1nc(SC)c2cnn(-c3ccnc4cc(Cl)ccc34)c2n1,GI50,A549 NSCLC,> 85.7 µM
same,TGI,A549 NSCLC,> 100 µM
same,GI50,RPMI-8226 leukemia,> 55.7 µM
same,TGI,RPMI-8226 leukemia,> 100 µM
same,GI50,SNB-75 CNS,> 67.8 µM
same,TGI,SNB-75 CNS,> 100 µM
same,GI50,NCI-H522 lung,55.1 µM
same,TGI,NCI-H522 lung,> 100 µM
same,GI50,ACHN renal,42 µM
same,TGI,ACHN renal,> 86.8 µM
same,GI50,IGROV1 ovarian,47.8 µM
same,TGI,IGROV1 ovarian,> 100 µM
same,GI50,SNB-19 CNS,> 100 µM
same,TGI,SNB-19 CNS,> 100 µM
same,GI50,SK-OV-3 ovarian,> 81.1 µM
same,TGI,SK-OV-3 ovarian,> 100 µM
same,GI50,HOP-62 NSCLC,29.1 µM
same,TGI,HOP-62 NSCLC,> 96.1 µM
same,GI50,COLO 205 colon,> 100 µM
same,TGI,COLO 205 colon,> 100 µM
same,GI50,A498 renal,> 100 µM
same,TGI,A498 renal,> 100 µM
same,GI50,K-562 leukemia,> 61 µM
same,TGI,K-562 leukemia,> 100 µM
same,GI50,CCRF-CEM leukemia,> 100 µM
same,TGI,CCRF-CEM leukemia,> 100 µM
same,GI50,NCI-H460 lung,9.36 µM
same,TGI,NCI-H460 lung,> 45.6 µM
same,GI50,SF-268 CNS,19.7 µM
same,TGI,SF-268 CNS,58.1 µM
same,GI50,HT29 colon,> 100 µM
same,TGI,HT29 colon,> 100 µM
same,GI50,U251 CNS,45.4 µM
same,TGI,U251 CNS,> 100 µM
same,GI50,NCI-H23 lung,21.2 µM
same,TGI,NCI-H23 lung,> 54.9 µM
same,GI50,SK-MEL-2 melanoma,> 44.9 µM
same,TGI,SK-MEL-2 melanoma,> 72.8 µM
same,GI50,OVCAR-4 ovarian,> 100 µM
same,TGI,OVCAR-4 ovarian,> 100 µM
same,GI50,SF-539 CNS,29.1 µM
same,TGI,SF-539 CNS,> 62.4 µM
same,GI50,M14 melanoma,34.8 µM
same,TGI,M14 melanoma,> 94.7 µM
same,GI50,PC-3 prostate,> 82.3 µM
same,TGI,PC-3 prostate,> 100 µM
same,GI50,HOP-92 NSCLC,> 63.6 µM
same,TGI,HOP-92 NSCLC,> 100 µM
same,GI50,EKVX NSCLC,25.9 µM
same,TGI,EKVX NSCLC,70.5 µM
same,GI50,SW-620 colon,> 59.1 µM
same,TGI,SW-620 colon,> 100 µM
same,GI50,RXF 393 renal,14.2 µM
same,TGI,RXF 393 renal,48.6 µM
same,GI50,UO-31 renal,> 100 µM
same,TGI,UO-31 renal,> 100 µM
same,GI50,MALME-3M melanoma,32.9 µM
same,TGI,MALME-3M melanoma,> 100 µM
